Experimental data reported in a melting point compilation (Tetko et al.).

Compound `CC1CCC2(OC1)OC1CC3C4CCC5CC(O)CCC5(C)C4CC(=O)C3(C)C1C2C` (centres undefined) has a melting point of 266 °C. For `COC1CCC(CC(=O)O)CC1` (centres undefined), the melting point was 78 °C. `c1ccc(Oc2nc(Oc3ccccc3)nc(Oc3ccccc3)n2)cc1` showed a melting point of 234 °C. `CCCCNC(=O)OC#CCI` showed a melting point of 66 °C. Compound `COC(=O)c1cc(OCc2cc(COc3cc(C(=O)OC)cc(C(=O)OC)c3)cc(COc3cc(C(=O)OC)cc(C(=O)OC)c3)c2)cc(C(=O)OC)c1` has a melting point of 188 °C. Work on `N#Cc1ccc([N+](=O)[O-])cc1C(F)(F)F` yielded a melting point of 52 to 54 °C. In the case of `COC(=O)[C@@H](CC(=O)O)C1CCCCC1`, the melting point was 47.9 °C. Work on `CCOC(=O)Cc1ccc(Br)cc1` yielded a melting point of 30 °C. `NC(=S)Cc1ccc(-c2csnn2)cc1` gave a melting point of 169 to 171 °C. `Nc1cc(Br)cnc1Cl` showed a melting point of 131 °C. Work on `C/C(=N/NC(N)=O)C(=O)Nc1ccc(Br)cc1` yielded a melting point of 243 to 245 °C. Compound `CC(C)[C@@H](O)[C@H](N)C(=O)O` has a melting point of 225 to 227 °C. With `O=C(Cl)c1cc2ccccc2o1` the melting point was 54 to 55 °C. Compound `C[Si](c1ccccc1)(c1ccccc1)[Si](C)(c1ccccc1)c1ccccc1` has a melting point of 138 to 140 °C. `O=C1c2[nH]c3ccc(Br)cc3c2CCN1Cc1ccc(Cl)cc1` gave a melting point of 233 °C. In the case of `CC(C)(OC1CCCCC1)C(=O)O`, the melting point was 75 °C. In the case of `CCN(CC(=O)O)C(=O)OC(C)(C)C`, the melting point was 88 °C. `CC(=CNNc1nc(C)cc(C)n1)c1ccncc1` gave a melting point of 214 to 216 °C. `CC12CCC=C1C1CCC3=CC(=O)CCC3(C)C1CC2` (centres undefined) gave a melting point of 117 °C. In the case of `OCCC(F)(F)C(F)(F)C(F)(F)C(F)(F)C(F)(F)C(F)(F)F`, the melting point was -35 °C. For `O=C1c2ccc([N+](=O)[O-])cc2C(=O)N1CCCCCCBr`, the melting point was 83 to 85 °C. `Nc1c(Cl)cc(F)cc1Cl` showed a melting point of 56 °C. Compound `COC(=O)c1ccc([N+](=O)[O-])c(C)c1` has a melting point of 81 °C. For `CC(C)(C)OC(=O)N1CCN(c2ccc(C=O)cn2)CC1`, the melting point was 126 to 128 °C. In the case of `O=C(O)c1cc(Br)cs1`, the melting point was 121 °C. `Brc1ccc(Oc2ccc(Br)cc2Br)c(Br)c1` gave a melting point of 78.5 to 79 °C. Compound `Oc1ncnc2cccc(F)c12` has a melting point of 238 °C. Work on `Cc1cc(Br)cc(Cl)c1O` yielded a melting point of 45 to 47 °C. `N[C@H](c1ccccc1)[C@H](N)c1ccccc1` showed a melting point of 81 to 84 °C. For `CC(CCC(/C=N/NC(N)=O)C(C)C)C(=O)O` (centres undefined), the melting point was 152 °C. `O=C(OCC(=O)N1CCCCCC1)c1ccccc1` showed a melting point of 108 °C. Compound `O=C(c1ccco1)N1CCNCC1` has a melting point of 68 °C. In the case of `CC(=O)Cc1ccccc1C(=O)OCC(=O)N(C)CCO`, the melting point was 70.5 °C. `O=C(O)CCc1ccc2c(c1)NC(=O)CC2` showed a melting point of 240 °C. Work on `COc1cc(C=C(C)[N+](=O)[O-])cc(OC)c1` yielded a melting point of 87 to 89 °C. `C=CC1C2=CCOC(=O)C2=COC1OC1OC(CO)C(O)C(O)C1O` (centres undefined) gave a melting point of 191 °C. Compound `O=C(O)Cc1ccc(Cl)cc1Cl` has a melting point of 129 °C. In the case of `CNc1c(F)c(F)c(-c2c(F)c(F)c(F)c(F)c2F)c(F)c1F`, the melting point was 72 °C. With `CC(=O)Nc1ccc(Br)cc1F` the melting point was 156 °C. `NCCNCCO` showed a melting point of -28 °C. Compound `CC(C)(C)CC(C)(C)S` has a melting point of -74 °C. Work on `O=C(CBr)c1cccc(Cl)c1` yielded a melting point of 39 to 41 °C. With `COc1ccc(OCCBr)cc1` the melting point was 46 to 50 °C. With `COc1ccc(C(=O)/C(=N\Nc2cc(Cl)ccc2Cl)S(=O)(=O)c2ccccc2)cc1` the melting point was 115 °C. `COC(=O)CCCC(=O)OC` showed a melting point of -37 °C. In the case of `O=C(NC(CO)(Cc1ccccc1)C(=O)O)c1ccccc1` (racemic), the melting point was 160 to 162 °C. Work on `Cn1c(=O)c(C2=NNC(=O)C2=CC=Cc2ccccc2)c(O)c2ccccc21` yielded a melting point of 238 °C. With `O=C(O)c1ccc2occc2c1` the melting point was 189 to 190 °C. In the case of `COC(=O)c1cc(Cl)c(NC(C)=O)cc1OC`, the melting point was 155 °C. Compound `N#Cc1c(OCC(F)(F)F)cccc1OCC(F)(F)F` has a melting point of 116 °C. In the case of `CCC(=O)Nc1c(C(=O)Cc2c(C)cc(C)cc2C)oc2ccccc12`, the melting point was 147 to 148 °C. `c1cc(SSc2ccncc2)ccn1` showed a melting point of 76 °C. `CC(=O)C1(O)CCC2C3CCC4=CC(=O)CCC4(C)C3CCC21C` (centres undefined) showed a melting point of 222 °C. `C#CC1(O)CCC2C3CCc4cc(OC5CCCC5)ccc4C3CCC21C` (centres undefined) gave a melting point of 108 °C. `O=C(Nc1cccc(Cl)c1)Nc1nnc(-c2ccc(Cl)cc2)o1` gave a melting point of 246 to 247 °C. In the case of `NC(=O)C[C@H](NC(=O)OCC1c2ccccc2-c2ccccc21)C(=O)O`, the melting point was 180 °C. With `COc1ccccc1-c1nnc2n1NC(c1ccccc1O)S2` (centres undefined) the melting point was 205 °C. For `Nc1cc[nH]n1`, the melting point was 37 °C. Compound `CCOC(=O)/C(=N\Nc1ccc(C)cc1C)C(=O)C(F)(F)F` has a melting point of 139 °C. In the case of `Nc1ccc(SCC(=O)O)cc1`, the melting point was 193 to 203 °C. For `O=Cc1csnn1`, the melting point was 85 to 87 °C. `COc1ccc(C2c3cc(OC)c(OC)cc3CCN2C(C)=O)cc1` (centres undefined) gave a melting point of 105 to 107 °C. For `Cc1ccc(C(=O)Cl)o1`, the melting point was 29 °C. For `CCN(CC)c1ccc(C(=O)O)cc1`, the melting point was 194 °C. Compound `OC(C1=CC(=C(c2ccccn2)c2ccccn2)C=C1)(c1ccccn1)c1ccccn1` has a melting point of 146 °C. Compound `FC(F)(F)c1cc(Cl)c2nc(S)[nH]c2c1` has a melting point of 310 to 312 °C. `CC(=O)Nc1ccc(CC#N)cc1` gave a melting point of 82 to 83 °C. Work on `COc1cc(C[N+](=O)[O-])ccc1OCc1ccccc1` yielded a melting point of 153 °C. `COc1cnc(NS(=O)(=O)c2ccc(N)cc2)nc1` showed a melting point of 215 °C. For `Cc1nccnc1C`, the melting point was 11 to 13 °C. For `COc1ccccc1-c1nnc2n1CN(c1ccccc1C)CS2`, the melting point was 239 to 240 °C. `c1ccc(OCc2ccc(CCCN3CCOCC3)cc2)cc1` gave a melting point of 52.5 °C. With `O=c1cc(-c2ccc(F)cc2)oc(-c2ccc(F)cc2)c1` the melting point was 168 to 169 °C. `COC(=O)C12C=CC(CC1)C1C(=O)OC(=O)C12` (centres undefined) showed a melting point of 116 to 118 °C. Compound `COc1cc(/C=N/N=C/c2ccc(OCc3ccccc3)c(OC)c2)ccc1OCc1ccccc1` has a melting point of 216 °C. `NNC(=O)c1ccc(OCc2ccccc2)cc1` showed a melting point of 140 °C. Compound `CN1CCN(Cc2ccc(CO)cc2)CC1` has a melting point of 96 to 98 °C. With `O=C(O)C=Cc1cccc(OC(F)(F)F)c1` the melting point was 93 to 96 °C. `COC1C(OC(=O)C=CC=CC=CC=CC(=O)O)CCC2(CO2)C1C1(C)OC1CC=C(C)C` (centres undefined) showed a melting point of 194 °C. `COC(=O)CCc1cccc(CCC(=O)OC)c1` showed a melting point of 51 °C. For `O=C(O)C12CC3CC(C1)CC(c1ccc([N+](=O)[O-])cc1)(C3)C2`, the melting point was 197 to 200 °C. Work on `c1ccc(-c2c3ccccc3c(-c3ccccc3)c3c(-c4ccccc4)c4ccccc4c(-c4ccccc4)c23)cc1` yielded a melting point of 332 °C. `CCC1(O)CCC2(C)C(CCC3C2CCC2(C)C3CCC23OCCO3)C1` (centres undefined) gave a melting point of 127 °C. Work on `C[Si](C)(C1C=Cc2ccccc21)C1C=Cc2ccccc21` (centres undefined) yielded a melting point of 85 to 87 °C. `Clc1c(Cl)c(Cl)c2ccccc2c1Cl` gave a melting point of 198 °C. In the case of `COc1ccc(C(C)=O)cc1CCl`, the melting point was 116 to 118 °C. For `CC12CCC3C(CCC4CC5(CCC43C)OCCO5)C1CCC2=O` (centres undefined), the melting point was 153 °C. Compound `CCOC(=O)c1c(C)sc(Sc2ccccc2[N+](=O)[O-])c1O` has a melting point of 144 to 146 °C. `CC(=O)OC1=C(C)C2(OC(C)=O)CCC1C1C(=O)NC(=O)C12` (centres undefined) showed a melting point of 161 to 162 °C. In the case of `CCCCCCCCCCCCCCCCCCCC1CCCCC1`, the melting point was 45 °C. `N#Cc1c(F)ccc([N+](=O)[O-])c1F` showed a melting point of 52.5 °C. `COC(=O)c1ccnc(N)c1` gave a melting point of 147 °C. `C=C(C)CCCCCCCCCCCCCCC` gave a melting point of 9 °C. In the case of `SCCCS`, the melting point was -79 °C. In the case of `O=C(O)c1cc(-c2ccc(Cl)cc2)oc1C(F)(F)F`, the melting point was 192 to 193 °C. `C[Si](C)(C)O[Si](C)(C)O[Si](C)(C)O[Si](C)(C)O[Si](C)(C)C` showed a melting point of -80 °C. With `Nc1ccccc1C(=O)OCc1ccccc1` the melting point was 76 to 78 °C. `Cc1ccc(Cl)cc1C(=O)O` gave a melting point of 168 to 170 °C. Compound `O=C(O)/C(=C/c1ccccc1[N+](=O)[O-])c1ccc([N+](=O)[O-])cc1` has a melting point of 184 °C. Work on `O=Cc1c[nH]nc1-c1cccs1` yielded a melting point of 102 to 103 °C. `CCOC=Nc1c(C#N)cnn1-c1ncnc2c1cnn2C` gave a melting point of 155 °C. Work on `c1ccc2c3c(ccc2c1)-c1cccc2cccc-3c12` yielded a melting point of 166 °C. `O=Cc1c[nH]nc1-c1ccc(F)cc1` showed a melting point of 160 to 164 °C. `CCCc1ccc(NC(C)=O)cc1O` gave a melting point of 178 to 179 °C. For `CC(=O)NCCSC(C)=O`, the melting point was 32.5 °C. In the case of `Cn1cnc(S(N)(=O)=O)c1`, the melting point was 222 to 224 °C. With `CC(C)(C)OC(=O)C[C@H]1C[C@@H](CC#N)OC(C)(C)O1` the melting point was 65 to 70 °C. Work on `N#CSc1ccc(N)c(C(=O)O)c1` yielded a melting point of 165 to 168 °C. Work on `CCCCCCOc1ccccc1C(N)=O` yielded a melting point of 71 °C. `O=C(c1ccccc1)c1cc(C(=O)c2ccccc2)cc(C(=O)c2ccccc2)c1` showed a melting point of 118 °C. For `N#C/C(=N/Nc1cc(Cl)ccc1Cl)c1nc(-c2ccccc2)cs1`, the melting point was 133 °C. In the case of `Nc1cc(F)ccc1Br`, the melting point was 44 °C. `CCCCCCF` gave a melting point of -103 °C. In the case of `C#CCCCCCCCCCC`, the melting point was -19 °C. `O=C(Nn1cnnc1)C(F)(F)C(F)(F)C(F)(F)C(F)(F)C(F)(F)C(F)(F)C(F)(F)C(F)(F)F` gave a melting point of 151 °C. `CC12CCC(=O)CC1(O)CCC2=O` (single isomer, unassigned; (+)) gave a melting point of 110 to 118 °C. For `Cc1cccc(C)c1C(=O)O`, the melting point was 116 °C. Compound `CCC1CN2CCC1CC2C(O)c1ccnc2ccccc12` (centres undefined) has a melting point of 268 °C. Work on `COc1cccc(OCc2ccccc2)c1C#N` yielded a melting point of 70 to 72 °C. Work on `Fc1c(F)c(F)c(P(c2c(F)c(F)c(F)c(F)c2F)c2c(F)c(F)c(F)c(F)c2F)c(F)c1F` yielded a melting point of 117 °C. `N#Cc1ccc(C(F)(F)F)cc1[N+](=O)[O-]` gave a melting point of 44 °C. For `CC1=C(C(=O)OCC(C)C)C(c2ccc3c(c2)OCO3)NC(=O)N1` (centres undefined), the melting point was 178 °C. In the case of `CCOc1ccc(NC(=O)CC(C)O)cc1` (centres undefined), the melting point was 160 °C. Compound `Sc1ccc(S)cc1` has a melting point of 97 °C.
